Measurements: PubChem BioAssay (NCI)
Values joined by “and” are separate entries in the source; they are usually repeats but may differ in a detail not shown here. Equal values may be shown once.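 48-hour exposure; five concentrations; linearly interpolated endpoints. The concentration for 50% growth inhibition is given as GI50. TGI denotes the concentration required for complete inhibition of growth.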

How the values were obtained:
Test in all cases: NCI anticancer screen, dose series, 48 h
DU-145 prostate = test system: DU-145 prostate
BT-549 breast = test system: BT-549 breast
NCI-H522 lung = test system: NCI-H522 lung
COLO 205 colon = test system: COLO 205 colon
SF-295 CNS = test system: SF-295 CNS
RPMI-8226 leukemia = test system: RPMI-8226 leukemia
HL-60(TB) leukemia = test system: HL-60(TB) leukemia
NCI-H460 lung = test system: NCI-H460 lung
K-562 leukemia = test system: K-562 leukemia
MOLT-4 leukemia = test system: MOLT-4 leukemia

Row | Compound | GI50 (DU-145 prostate) | TGI (DU-145 prostate) | GI50 (BT-549 breast) | TGI (BT-549 breast) | GI50 (NCI-H522 lung) | TGI (NCI-H522 lung) | GI50 (COLO 205 colon) | TGI (COLO 205 colon) | GI50 (SF-295 CNS) | TGI (SF-295 CNS) | GI50 (RPMI-8226 leukemia) | TGI (RPMI-8226 leukemia) | GI50 (HL-60(TB) leukemia) | TGI (HL-60(TB) leukemia) | GI50 (NCI-H460 lung) | TGI (NCI-H460 lung) | GI50 (K-562 leukemia) | TGI (K-562 leukemia) | GI50 (MOLT-4 leukemia) | TGI (MOLT-4 leukemia)
1 | O=C(c1cccnc1)c1cc(-c2ccccn2)c(=O)n2ccccc12 | > 100 µM | > 100 µM | > 100 µM | > 100 µM | > 100 µM | > 100 µM | > 100 µM | > 100 µM | > 100 µM | > 100 µM | > 100 µM | > 100 µM | > 100 µM | > 100 µM | > 100 µM | > 100 µM | > 100 µM | > 100 µM | > 100 µM | > 100 µM
2 | FC(F)(F)c1ccc(-c2cnc(Cl)nc2NCc2cc(C(F)(F)F)cc(C(F)(F)F)c2)cc1 | 3.92 µM | > 100 µM | 5.59 µM | > 100 µM | 2.69 µM | 9.86 µM | 1.88 µM | 3.43 µM | 2.66 µM | > 100 µM | 3.08 µM | > 100 µM | 2.6 µM | 6.73 µM | 3.16 µM | > 100 µM | 3.77 µM | > 100 µM | 3.94 µM | > 100 µM
3 | COc1ccc(/C=C2\CCC(CN(C)C)C2=O)cc1OC (configuration not stated) | – | 20.4 µM | – | 14.3 µM | – | 4.23 µM | – | 10.6 µM | – | 29.2 µM | – | 5.95 µM | – | 8.62 µM | – | 26.6 µM | – | 9.12 µM | – | 7.35 µM
4 | CN(C(=O)c1ccncc1)c1ccccc1 | – | > 100 µM | – | > 100 µM | – | > 100 µM | – | > 100 µM | – | > 100 µM | – | > 100 µM | – | > 100 µM | – | > 100 µM | – | > 100 µM | – | > 100 µM
5 | CS(=O)(=O)Nc1ccc(N=Cc2c(O)[nH]c3ccccc23)cc1 | > 25 µM | > 25 µM | > 25 µM | > 25 µM | > 25 µM | > 25 µM | > 25 µM | > 25 µM | > 25 µM | > 25 µM | > 25 µM | > 25 µM | > 25 µM | > 25 µM | > 25 µM | > 25 µM | > 25 µM | > 25 µM | > 25 µM | > 25 µM
6 | COc1cc2c3c(n(C)c(=O)c2cc1OC)-c1cc2c(cc1/C3=C\C(N)CN)OCO2 (configuration not stated) | 2.02 µM | 10 µM | 0.72 µM | 4.52 µM | 0.394 µM | – | 2.08 µM | 12.1 µM | 1.31 µM | 7.79 µM | 6.43 µM | 26.1 µM | 8.69 µM | > 100 µM | 1.5 µM | 7.58 µM | 3.74 µM | > 71.5 µM | 0.125 µM | > 40.7 µM
7 | CCCCN(CCCC)c1ccc(C(=NC(C)CCCN(CC)CC)c2ccc(N(C)C)cc2)cc1 (configuration not stated) | 1.57 µM | 6.04 µM | 0.838 µM | 1.73 µM | 0.706 µM | 1.56 µM | 0.85 µM | 1.69 µM | 0.88 µM | 1.73 µM | 0.95 µM | 2.19 µM | 1.01 µM | 2.03 µM | 0.842 µM | 1.64 µM | 0.153 µM | 0.549 µM | 0.865 µM | 2.18 µM
8 | S=C(Nc1cc(Cl)c(Cl)cc1Cl)SCc1ccccc1 | – | > 100 µM | – | 65.8 µM | – | 59.5 µM | – | > 100 µM | – | 42.6 µM | – | 46.5 µM | – | 50.4 µM | – | > 100 µM | – | 45.1 µM | – | 76.4 µM
9 | Nc1nc(N)c(N=O)c(OCC2CCCCC2)n1 | 5.93 µM | > 100 µM | 4.8 µM | 61 µM and > 84.9 µM | 10 µM | > 73.3 µM and 50.7 µM | 15.1 µM | 37.4 µM and 33.8 µM | – | 61.2 µM and 77.2 µM | 9.17 µM | 98.7 µM and 36.1 µM | 10.7 µM | 53.8 µM and 58.9 µM | 8.93 µM | > 80.5 µM and 38.1 µM | – | > 100 µM | 7.65 µM | > 100 µM and 51 µM
10 | CSC1(SC2=NCCN2)SC2(NCCN2)S1 | – | 28.2 µM | – | 54.9 µM | – | 27.1 µM | – | 40.5 µM | – | 67.6 µM | – | 13.4 µM | – | 55.9 µM | – | 45.4 µM | – | 81.2 µM | – | 52.9 µM
11 | COc1ccc2c(c1)C(C)Cc1c(Cl)nc(C)nc1N2C (configuration not stated) | 3.72 µM | 33.5 µM | 2.22 µM | 12.3 µM | 0.763 µM | 5.92 µM | 2.07 µM | 5.53 µM | 1.74 µM | 7.92 µM | 4.14 µM | 36 µM | 2.54 µM | > 100 µM | 3.09 µM | 15.4 µM | 0.713 µM | > 100 µM | 5.01 µM | > 100 µM
12 | Nc1cc(N)c2nc(-c3ccccc3)c(NCc3ccc(F)cc3)nc2c1 | 1.5 µM | 3.81 µM | 1.69 µM | 3.26 µM | > 100 µM | > 100 µM | 2.53 µM | 6.18 µM | 3.5 µM | 13.6 µM | 2.54 µM | 6.25 µM | 3.85 µM | > 100 µM | 4.05 µM | 25.6 µM | 4.39 µM | > 100 µM | > 100 µM | > 100 µM
13 | CCCc1cc(=O)n2c(C(=O)Nc3ccccc3OC)c(C(=O)Nc3ccc(F)cc3)sc2n1 | 13.3 µM | 34.6 µM | 31 µM | 71.1 µM | 17.7 µM | 68 µM | 38.2 µM | > 160 µM | 19 µM | 61.7 µM | 3.15 µM | 32.8 µM | 37.4 µM | > 160 µM | 39.8 µM | > 160 µM | 4.64 µM | 33.1 µM | 19.8 µM | 57.3 µM
14 | CC(C)(C#N)c1cc(C(=O)Nc2cc(Nc3ncccc3-c3ncnc4nc[nH]c34)ccc2F)cc(C(F)(F)F)c1 | > 2.01 µM | > 10 µM | – | > 2.3 µM | – | > 6.56 µM | 0.131 µM | – | – | > 3.73 µM | 4.84 µM | > 10 µM | 0.526 µM | > 10 µM | 1.18 µM | > 3.27 µM | 0.345 µM | > 10 µM | – | > 6.2 µM
15 | Nc1n[nH]c2ccc([C@@H]3Nc4ccc5[nH]ncc5c4[C@H]4C5C=CC(C5)[C@@H]34)cc12 (some centres not stated) | 0.445 µM | > 30.8 µM | 0.32 µM | 7.05 µM | 0.173 µM | 12.7 µM | 0.332 µM | 1.83 µM | 0.172 µM | 4.38 µM | 0.355 µM | 11.5 µM | 0.321 µM | 4.39 µM | 0.365 µM | 11.4 µM | 0.0992 µM | > 100 µM | 0.433 µM | 40.7 µM
16 | CC(C)c1ccc(Nc2nccc(-c3cnn4ncccc34)n2)cc1 | 0.809 µM | > 9.19 µM | 0.967 µM | > 25 µM | 0.564 µM | 3.35 µM | 0.306 µM | 0.704 µM | 0.523 µM | 12.2 µM | 0.466 µM | 2.56 µM | 1.32 µM | 4.12 µM | 0.496 µM | 4.95 µM | 1.19 µM | > 25 µM | 0.888 µM | 4.19 µM
17 | CC(=O)O[C@H]1CC[C@@]2(C)[C@@H](CC[C@@H]3[C@@H]2CC[C@]2(C)C=C(C=O)C[C@@H]32)C1 | 4.75 µM | 15.9 µM | 12.1 µM | 32.3 µM | 21.1 µM | 45.6 µM | 19 µM | 39.2 µM | 17.4 µM | 36 µM | 2.74 µM | 8.16 µM | 2.2 µM | 5.87 µM | 20.6 µM | 42.4 µM | 3.74 µM | 16.5 µM | 2.61 µM | 7.33 µM
18 | O=C(CCCSc1nc(-c2ccccc2)cc(-c2ccc(Cl)cc2)n1)NO | 1.39 µM | 8.94 µM | 3.46 µM | 17.6 µM | 1.96 µM | 10.4 µM | 2.9 µM | 12.1 µM | 2.03 µM | 5.71 µM | 1.65 µM | 8.42 µM | 2.35 µM | 9.26 µM | 0.558 µM | 7.29 µM | 1.51 µM | 26.1 µM | 1.51 µM | 10.6 µM
19 | Clc1nc(Cl)c(-c2ccccc2)c(Cl)n1 | – | 26.4 µM | – | 7.09 µM | – | 3.24 µM | – | 3.6 µM | – | 27.2 µM | – | 6.16 µM | – | 4.77 µM | – | 35.9 µM | – | > 35 µM | – | > 100 µM
20 | CCCCCCCOc1c(OC)cc(C2CC(=O)Nc3c2c(C)nn3-c2nc3ccccc3[nH]2)cc1OC (configuration not stated) | 4.66 µM | > 100 µM | 3.4 µM | 47.5 µM | 2.79 µM | 10.3 µM | 4.34 µM | > 100 µM | 2.33 µM | 7.74 µM | 3.71 µM | > 100 µM | 2.88 µM | 9.03 µM | 1.87 µM | 3.82 µM | 4.23 µM | > 100 µM | 2.8 µM | 7.72 µM
